Calls of active or inactive are those of the source. The rule behind the calls is not given here.
How the values were obtained:
[1] = molecular target: Programmed cell death protein 1/Programmed cell death 1 ligand 1 (Homo sapiens, UniProt Q9NZQ7); assay: (§1) Inhibition of human PD1/PDL1 protein-protein interaction in human PBMC-derived CD3-positive T cells co-cultured with human Hep3B cells expressing human PDL1/OS-8 assessed as increase in IFNgamma secretion measured after 72 hrs by ELISA
[2] = molecular target: Programmed cell death protein 1/Programmed cell death 1 ligand 1 (Homo sapiens) (UniProt Q15116+Q9NZQ7); assay: as §1
[3] = Selectivity ratio of IC50 for inhibition of mouse biotin-labelled C-terminal Fc-fused/Avi-tagged PD1/Fc-fused PDL1 expressed in HEK293 cells protein-protein interaction to IC50 for inhibition of human PD1/PDL1 protein-protein interaction; type: cell-based
Mus musculus [4] = assay: (§2) Immunostimulatory activity in mouse B16/F10 cells implanted […] mouse assessed as increase in activation of tumor-microenvironment mediated helper T cells in tumor by measuring CD3-positive cell population at 25 mg/kg, ig administered once daily via gavage for 15 days measured 24 hrs post-last dose by immunostaining based flow cytometry (reference value: 18.9%); type: functional
Mus musculus [5] = assay: Effect on spleen helper T cell population in mouse B16/F10 cells implanted […] mouse assessed as CD3-positive cell population at 50 mg/kg, ig administered once daily via gavage for 15 days measured 24 hrs post-last dose by immunostaining based flow cytometry (reference value: 14.7%); type: organism-based; conditions: in vivo, po
Mus musculus [6] = assay: as §2, with “CD4-positive” for “CD3-positive”, “100” for “25”, “4.95%)” for “18.9%)”; type: functional
Mus musculus [7] = assay: Effect on spleen helper T cell population in mouse B16/F10 cells implanted […] mouse assessed as CD4-positive cell population at 25 mg/kg, ig administered once daily via gavage for 15 days measured 24 hrs post-last dose by immunostaining based flow cytometry (reference value: 1.47 %); type: ADME, organism-based; conditions: in vivo, po
B16-F10 [8] = assay: Antitumor activity against mouse B16/F10 cells implanted in BALB/c mouse assessed as tumor growth inhibition at 50 mg/kg, ig administered once daily via gavage for 15 days relative to control; type: functional; conditions: B16-F10, po, 360 h, read-out: TGI
B16-F10 [9] = assay: Antitumor activity against mouse B16/F10 cells implanted in BALB/c mouse assessed as tumor weight at 100 mg/kg, ig administered once daily via gavage for 15 days measured 24 hrs post-last dose (reference value: 0.84 +/- 0.32 g); type: functional
Mus musculus [10] = assay: (§3) Effect on activated cytotoxic T cell population in mouse B16/F10 cells implanted […] mouse assessed as CD3-positive cell population in spleen at 100 mg/kg, ig administered once daily via gavage for 15 days measured 24 hrs post-last dose by immunostaining based flow cytometry (reference value: 27.5 %); type: organism-based; conditions: in vivo, po
[11] = Oral bioavailability in Sprague-Dawley rat at 10 mg/kg by LC-MS/MS analysis; type: ADME, organism-based; conditions: in vivo
Mus musculus [12] = assay: as §2, with “CD3-positive/CD4-positive” for “CD3-positive”, “100” for “25”, “6.15%)” for “18.9%)”; type: functional
Mus musculus [13] = assay: as §2, with “activated cytotoxic” for “helper”, “CD8-positive” for “CD3-positive”, “100” for “25”, “2.2%)” for “18.9%)”; type: functional
[14] = Toxicity in mouse B16/F10 cells implanted […] mouse assessed as change in spleen weight at 25 to 100 mg/kg, ig administered once daily via gavage for 15 days measured 24 hrs post-last dose; type: organism-based; conditions: in vivo, po
Mus musculus [15] = assay: as §2, with “50” for “25”; type: functional
[16] = Toxicity in mouse B16/F10 cells implanted […] mouse assessed as change in thymus weight at 25 to 100 mg/kg, ig administered once daily via gavage for 15 days measured 24 hrs post-last dose; type: organism-based; conditions: in vivo, po
MCF7 = assay: Cytotoxicity against human MCF7 cells assessed as reduction in cell viability measured after 48 hrs by MTT assay; type: functional, cell-based; conditions: MCF7, 48 h
Mus musculus [17] = assay: as §2, with “activated cytotoxic” for “helper”, “melanoma” for “CD3-positive”, “50” for “25”, “72.8%)” for “18.9%)”; type: functional
Mus musculus [18] = assay: Immunostimulatory activity in mouse B16/F10 cells implanted […] mouse assessed as activation of tumor microenvironment by measuring increase in tumor infiltrating lymphocytes at 25 to 100 mg/kg, ig administered once daily via gavage for 15 days measured 24 hrs post last dose by H and E staining-based microscopic method; type: functional, organism-based
Mus musculus [19] = assay: as §3, with “CD8-positive” for “CD3-positive”, “50” for “100”, “0.383” for “27.5”; type: organism-based; conditions: in vivo, po
Mus musculus [20] = assay: as §2, with “activated cytotoxic” for “helper”, “50” for “25”, “20.8%)” for “18.9%)”; type: functional
[21] = molecular target: Programmed cell death protein 1/Programmed cell death 1 ligand 1 (Mus musculus, UniProt Q9EP73); assay: Inhibition of mouse biotin-labelled C-terminal Fc-fused/Avi-tagged PD1/Fc-fused PDL1 expressed in HEK293 cells protein-protein interaction measured after 2 hrs by ELISA; type: cell-based
Programmed cell death protein 1/Programmed cell death 1 ligand 1 (Mus musculus, UniProt Q9EP73), sequence (Q9EP73 whole entry, the tested form may be a part): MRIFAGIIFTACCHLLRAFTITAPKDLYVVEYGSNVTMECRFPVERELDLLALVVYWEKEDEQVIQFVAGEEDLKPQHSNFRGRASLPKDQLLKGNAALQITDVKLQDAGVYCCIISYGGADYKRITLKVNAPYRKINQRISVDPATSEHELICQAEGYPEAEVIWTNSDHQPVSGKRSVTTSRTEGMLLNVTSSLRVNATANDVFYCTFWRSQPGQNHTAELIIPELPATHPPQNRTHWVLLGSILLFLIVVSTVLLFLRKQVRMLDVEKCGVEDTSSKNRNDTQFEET
Programmed cell death protein 1/Programmed cell death 1 ligand 1 (Mus musculus, UniProt Q9EP73), sequence (Q02242 whole entry, further chain, the tested form may be a part): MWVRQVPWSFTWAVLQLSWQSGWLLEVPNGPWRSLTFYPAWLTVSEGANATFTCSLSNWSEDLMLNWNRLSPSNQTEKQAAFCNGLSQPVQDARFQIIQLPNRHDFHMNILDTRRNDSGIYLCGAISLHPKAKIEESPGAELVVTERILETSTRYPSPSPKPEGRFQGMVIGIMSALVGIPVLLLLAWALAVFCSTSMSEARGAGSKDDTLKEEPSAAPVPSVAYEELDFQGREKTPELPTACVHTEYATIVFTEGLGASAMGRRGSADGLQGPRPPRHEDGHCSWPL

Mus musculus [22] = assay: as §2, with “activated cytotoxic” for “helper”, “CD3-positive/CD8-positive” for “CD3-positive”, “50” for “25”, “4.18%)” for “18.9%)”; type: functional
[23] = Clearance in Sprague-Dawley rat at 10 mg/kg, po by LC-MS/MS analysis; type: ADME, organism-based; conditions: in vivo
Mus musculus [24] = assay: Effect on spleen helper T cell population in mouse B16/F10 cells implanted […] mouse assessed as spleen cell population at 50 mg/kg, ig administered once daily via gavage for 15 days measured 24 hrs post-last dose by immunostaining based flow cytometry (reference value: 56.1 %); type: ADME, organism-based; conditions: in vivo, po

Programmed cell death protein 1/Programmed cell death 1 ligand 1 (Homo sapiens, UniProt Q9NZQ7), sequence (Q15116 whole entry): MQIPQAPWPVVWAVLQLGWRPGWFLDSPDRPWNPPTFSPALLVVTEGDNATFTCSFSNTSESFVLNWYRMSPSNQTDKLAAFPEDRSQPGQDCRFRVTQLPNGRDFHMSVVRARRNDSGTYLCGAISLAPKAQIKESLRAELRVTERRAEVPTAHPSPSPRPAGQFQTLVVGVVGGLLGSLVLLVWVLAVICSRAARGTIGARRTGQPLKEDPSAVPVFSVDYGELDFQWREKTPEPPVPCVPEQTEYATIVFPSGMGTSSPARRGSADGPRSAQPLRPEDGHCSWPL
Programmed cell death protein 1/Programmed cell death 1 ligand 1 (Homo sapiens, UniProt Q9NZQ7), sequence (Q9NZQ7 whole entry): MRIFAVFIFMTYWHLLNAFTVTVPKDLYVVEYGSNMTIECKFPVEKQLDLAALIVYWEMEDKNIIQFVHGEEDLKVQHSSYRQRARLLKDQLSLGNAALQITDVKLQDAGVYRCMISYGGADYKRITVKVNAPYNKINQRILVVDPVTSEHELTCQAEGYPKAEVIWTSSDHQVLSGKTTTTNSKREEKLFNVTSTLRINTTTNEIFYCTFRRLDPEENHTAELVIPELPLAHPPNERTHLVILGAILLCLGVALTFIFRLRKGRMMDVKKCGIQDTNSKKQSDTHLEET

**Q.** With `Cc1c(COc2cc(OCc3cccc(C#N)c3)c(CNC(C)(C)C(=O)O)cc2Cl)cccc1-c1ccccc1` as the compound, how does the EC50 [1] read?
**A.** 3 µM

**Q.** And the inhibition [2]?
**A.** Dose-dependent effect

**Q.** What about the Ratio IC50 [3] of the same compound?
**A.** > 80

**Q.** And the Activity (Mus musculus [4])?
**A.** 15%

**Q.** What about the Activity (Mus musculus [5]) of the same compound?
**A.** 16.7%

**Q.** And the Activity (Mus musculus [6])?
**A.** 1.3%

**Q.** What about the Activity (Mus musculus [7]) of the same compound?
**A.** 1.94%

**Q.** What about the inhibition in vivo at 50 mg/kg (B16-F10 [8]) of the same compound?
**A.** 75%

**Q.** What about the Activity (B16-F10 [9]) of the same compound?
**A.** 0.16 g

**Q.** And the Activity (Mus musculus [10])?
**A.** 25.4%

**Q.** What about the bioavailability [11] of the same compound?
**A.** 5%

**Q.** And the Activity (Mus musculus [12])?
**A.** 13.8%

**Q.** What about the Activity (Mus musculus [13]) of the same compound?
**A.** 13.5%

**Q.** What about the Activity [14] of the same compound?
**A.** Non-Toxic

**Q.** What about the Activity (Mus musculus [15]) of the same compound?
**A.** 17.7%

**Q.** What about the Activity [16] of the same compound?
**A.** Non-Toxic

**Q.** What about the IC50 (MCF7) of the same compound?
**A.** > 10 µM

**Q.** And the Activity (Mus musculus [17])?
**A.** 64.9%

**Q.** And the Activity (Mus musculus [18])?
**A.** Active

**Q.** What about the Activity (Mus musculus [19]) of the same compound?
**A.** 0.374%

**Q.** What about the Activity (Mus musculus [20]) of the same compound?
**A.** 14.5%

**Q.** What about the IC50 [21] of the same compound?
**A.** > 1 µM

**Q.** And the Activity (Mus musculus [22])?
**A.** 14.8%

**Q.** What about the CL/F [23] of the same compound?
**A.** 385 mL/min/kg

**Q.** And the Activity (Mus musculus [24])?
**A.** 53.9%

Source: ChEMBL document CHEMBL4619786, “Discovery of Novel Resorcinol Dibenzyl Ethers Targeting the Programmed Cell Death-1/Programmed Cell Death-Ligand 1 Interaction as Potential Anticancer Agents” (J Med Chem, 2020)
